Earlier results, collected in patent US20030195171A1 (priority 2002, published 2003).

Key:
[1] = biological target: T1, vitamin D receptor (Homo sapiens, UniProt P11473); details: relative to 1α,25-dihydroxy-cholecalciferol
T1 sequence (P11473 1-427): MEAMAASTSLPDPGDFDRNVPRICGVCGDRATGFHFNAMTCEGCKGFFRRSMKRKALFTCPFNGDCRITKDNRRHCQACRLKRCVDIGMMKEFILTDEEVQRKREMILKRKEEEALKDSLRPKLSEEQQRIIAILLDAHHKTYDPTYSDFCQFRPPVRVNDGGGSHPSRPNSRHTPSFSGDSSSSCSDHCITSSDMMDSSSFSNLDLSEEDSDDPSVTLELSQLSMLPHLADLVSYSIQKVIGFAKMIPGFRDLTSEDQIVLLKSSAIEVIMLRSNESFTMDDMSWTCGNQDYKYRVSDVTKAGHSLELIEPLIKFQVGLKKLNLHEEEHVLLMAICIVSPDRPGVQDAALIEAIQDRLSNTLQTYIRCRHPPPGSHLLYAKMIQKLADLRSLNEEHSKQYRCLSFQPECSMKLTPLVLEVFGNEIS

[2] = compared to placebo

Structure (SMILES) | Intrinsic activity, fold lower than that of 1α,25-dihydroxy-cholecalciferol [1] | Decrease in the risk of vertebral fractures ([2]; administered over a substantial period of time) | Reduction in vertebral fracture rate per 100 patients ([2]; total number of vertebral fractures)
C=C1CC[C@H](O)C/C1=C/C=C1\CCC[C@]2(C)[C@@H]([C@H](C)CCCC(C)(C)O)CC[C@@H]12 [25-hydroxy-cholecalciferol] | about 100 fold |  | 
NCCCC(O)(P(=O)(O)O)P(=O)(O)O [alendronate, 4-Amino-1-hydroxybutylidene-1,1-bisphosphonic acid monosodium trihydrate] |  | at least 40% | at least 50%
